# ChEMBL document CHEMBL5108052, “Histone Deacetylase and Enhancer of Zeste Homologue 2 Dual Inhibitors Presenting a Synergistic Effect for the Treatment of Hematological Malignancies” (J Med Chem, 2022)
# Tests used:
# [1] = molecular target: T1, Protein deacetylase HDAC6 (Homo sapiens, UniProt Q9UBN7); experiment: Inhibition of full length recombinant N-terminal GST-tagged human HDAC6 (1 to 1215 residues) expressed in baculovirus infected insect cells incubated for 2 hrs by Multimode microplate reader analysis
# T1 sequence (Q9UBN7 whole entry): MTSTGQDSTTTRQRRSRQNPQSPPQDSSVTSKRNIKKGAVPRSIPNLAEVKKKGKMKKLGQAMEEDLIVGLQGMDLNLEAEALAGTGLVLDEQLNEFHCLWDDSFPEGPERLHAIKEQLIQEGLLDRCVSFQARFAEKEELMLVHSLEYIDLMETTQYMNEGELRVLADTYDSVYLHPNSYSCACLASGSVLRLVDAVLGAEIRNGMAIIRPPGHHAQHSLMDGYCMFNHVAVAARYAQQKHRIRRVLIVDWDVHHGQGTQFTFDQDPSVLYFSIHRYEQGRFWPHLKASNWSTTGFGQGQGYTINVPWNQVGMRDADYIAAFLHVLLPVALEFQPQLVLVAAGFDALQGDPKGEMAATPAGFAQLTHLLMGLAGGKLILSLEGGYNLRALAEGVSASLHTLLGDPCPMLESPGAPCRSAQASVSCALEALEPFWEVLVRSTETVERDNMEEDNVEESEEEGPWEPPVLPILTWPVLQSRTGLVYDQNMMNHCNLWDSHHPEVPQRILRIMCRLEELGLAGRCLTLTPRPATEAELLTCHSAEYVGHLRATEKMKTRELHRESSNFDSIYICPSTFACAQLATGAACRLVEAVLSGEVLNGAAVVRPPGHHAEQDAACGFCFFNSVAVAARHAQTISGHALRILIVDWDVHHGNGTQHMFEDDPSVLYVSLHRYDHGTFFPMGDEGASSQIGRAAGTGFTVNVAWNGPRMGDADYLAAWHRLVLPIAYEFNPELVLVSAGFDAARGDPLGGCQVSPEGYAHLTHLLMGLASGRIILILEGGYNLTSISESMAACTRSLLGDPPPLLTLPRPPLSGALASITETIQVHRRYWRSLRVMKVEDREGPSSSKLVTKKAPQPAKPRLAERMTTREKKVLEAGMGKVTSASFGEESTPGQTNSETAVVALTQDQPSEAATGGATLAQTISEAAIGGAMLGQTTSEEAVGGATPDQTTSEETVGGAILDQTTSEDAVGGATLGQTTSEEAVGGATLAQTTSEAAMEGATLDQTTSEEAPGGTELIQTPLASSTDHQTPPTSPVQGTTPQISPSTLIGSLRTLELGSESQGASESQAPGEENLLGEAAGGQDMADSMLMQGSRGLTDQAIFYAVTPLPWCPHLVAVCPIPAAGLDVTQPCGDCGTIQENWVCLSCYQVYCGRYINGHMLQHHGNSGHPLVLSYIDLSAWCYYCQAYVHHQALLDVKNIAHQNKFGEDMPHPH
# [2] = tested on: MV4-11; experiment: Induction of apoptosis in human MV4-11 cells assessed as necrotic cells at 0.4 uM measured after 48 hrs by Annexin V/7-AAD-dual staining based flow cytometric analysis (reference value: 0.3 %); type: functional
# [3] = molecular target: T2, Polyamine deacetylase HDAC10 (Homo sapiens, UniProt Q969S8); experiment: Inhibition of HDAC10 (unknown origin) incubated for 2 hrs by Multimode microplate reader analysis
# T2 sequence (Q969S8 whole entry): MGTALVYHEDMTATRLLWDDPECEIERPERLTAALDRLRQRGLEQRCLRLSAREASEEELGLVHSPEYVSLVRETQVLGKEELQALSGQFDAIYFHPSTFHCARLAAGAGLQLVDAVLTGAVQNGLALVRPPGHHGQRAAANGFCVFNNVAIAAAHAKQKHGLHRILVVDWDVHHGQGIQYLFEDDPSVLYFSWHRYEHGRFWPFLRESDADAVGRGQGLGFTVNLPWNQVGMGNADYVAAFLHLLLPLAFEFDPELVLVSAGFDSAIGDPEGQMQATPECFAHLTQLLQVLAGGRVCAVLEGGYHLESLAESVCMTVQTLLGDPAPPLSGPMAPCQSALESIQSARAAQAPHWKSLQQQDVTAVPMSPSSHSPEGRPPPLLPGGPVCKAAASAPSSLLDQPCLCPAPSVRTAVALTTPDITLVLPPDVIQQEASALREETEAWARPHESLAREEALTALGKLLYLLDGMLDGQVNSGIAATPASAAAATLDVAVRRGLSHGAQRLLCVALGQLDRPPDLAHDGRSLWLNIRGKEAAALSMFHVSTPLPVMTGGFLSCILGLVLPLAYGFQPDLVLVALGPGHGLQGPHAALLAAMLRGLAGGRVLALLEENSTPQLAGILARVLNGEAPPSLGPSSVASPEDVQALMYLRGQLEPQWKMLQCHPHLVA
# [4] = tested on: MV4-11; experiment: animal or person; type: functional, Homo sapiens; conditions: Mus musculus, MV4-11, 480 h, route ip, time 20 day, read-out: TGI
# [5] = tested on: MV4-11; experiment: Induction of apoptosis in human MV4-11 cells assessed as early apoptotic cells at 0.1 uM measured after 48 hrs by Annexin V/7-AAD-dual staining based flow cytometric analysis (reference value: 2.2 %); type: functional
compound,measurement,setting,value
Cc1cc(C)c(CNC(=O)c2cc(-c3ccc(N4CCN(c5ncc(C(=O)NO)cn5)CC4)nc3)cc3c2cnn3C(C)C)c(=O)[nH]1,IC50,[1],700 nM
same,Activity,[2],0.1%
same,IC50,[3],1470 nM
same,inhibition in vivo at 100 mg/kg,[4],82%
same,Activity,[5],5.4%
